Measured values: article PMC6063448, “Antimicrobial activity of linear lipopeptides derived from BP100 towards plant pathogens” (PLoS ONE, 2018)

Tests used:
tobacco leaves = test: Effect of peptide infiltration on tobacco leaves; type: in vivo; details: for Reaction observed in the area of infiltration of tobacco leaves: in contrast to melittin; for Size of the lesions in infiltrated tobacco leaves (diameter): 250 μM, 100 μL infiltrated into mesophyll, measured after 48 h
Method: BP100 and the 36 lipopeptides were evaluated for their effect upon infiltration on tobacco leaves as described previously. Peptide solutions of 50, 150 and 250 μM were infiltrated (100 μL) into the mesophylls of fully expanded tobacco leaves. Infiltrations were carried out in a single leaf, and for each peptide and dose, at least three leaves randomly distributed in different plants were inoculated. Control infiltrations with water (negative control) or melittin (positive control) at the same molar concentration were performed. The appearance of symptoms on the leaves was followed for 48 h after infiltration and measured as a lesion diameter.

proteinase K = system: T1, proteinase K; test: Susceptibility to protease degradation; type: in vitro ADME; details: proteinase K (isolated protease) in TRIS buffer; 50 μg/mL peptide, 1 μg/mL proteinase K, 100 mM TRIS buffer pH 7.6, 25°C, 60 min; decrease of HPLC peak area (220 nm); read-out: Digestion with proteinase K (percentage of degraded peptide)
T1 construct: purchased Sigma-Aldrich Corporation, Spain
Method: Digestion of BP100 and of 16 selected lipopeptides was carried out by treating 50 μg/mL peptide with 1 μg/mL proteinase K (Sigma-Aldrich Corporation, Spain) in 100 mM TRIS buffer, pH 7.6, at 25°C. The peptide cleavage after 60 min was determined by HPLC using a Kromasil (4.6 × 40 mm; 3 μm particle size) C18 reverse-phase column. Linear gradients of 0.1% aqueous TFA and 0.1% TFA in CH3CN were run from 0.98:0.02 to 0:1 over 12 min with UV detection at 220 nm. Digestion was estimated as the percentage of degraded lipopeptide calculated from the decrease of the HPLC peak area of the native peptide.

Structure (SMILES) | Reaction observed in the area of infiltration of tobacco leaves (tobacco leaves) | metabolised at 1 h, 50 μg/mL (proteinase K) | Size of the lesions in infiltrated tobacco leaves (diameter) (tobacco leaves)
CCCCCCCCCCCC(=O)NCCCC[C@H](NC(=O)[C@H](CC(C)C)NC(=O)[C@@H](NC(=O)[C@H](CCCCN)NC(=O)[C@H](CCCCN)NC(=O)[C@H](Cc1ccccc1)NC(=O)[C@H](CC(C)C)NC(=O)[C@H](CCCCN)NC(=O)[C@H](CCCCN)NC(C)=O)[C@@H](C)CC)C(=O)N[C@@H](Cc1ccc(O)cc1)C(=O)N[C@@H](CC(C)C)C(N)=O [BP400, Ac-KKLFKKILK(COC11H23)YL-NH2] | not a typical necrosis | – | –
CCCC(=O)NCCCC[C@H](NC(=O)[C@H](CCCCN)NC(C)=O)C(=O)N[C@@H](CC(C)C)C(=O)N[C@@H](Cc1ccccc1)C(=O)N[C@@H](CCCCN)C(=O)N[C@@H](CCCCN)C(=O)N[C@H](C(=O)N[C@@H](CC(C)C)C(=O)N[C@@H](CCCCN)C(=O)N[C@@H](Cc1ccc(O)cc1)C(=O)N[C@@H](CC(C)C)C(N)=O)[C@@H](C)CC [BP381, Ac-KK(COC3H7)LFKKILKYL-NH2] | – | 53% | 10.8 ± 1.9 mm
CC[C@H](C)[C@H](NC(=O)[C@H](CCCCN)NC(=O)[C@H](CCCCN)NC(=O)[C@H](Cc1ccccc1)NC(=O)[C@H](CC(C)C)NC(=O)[C@H](CCCCN)NC(=O)[C@@H](N)CCCCN)C(=O)N[C@@H](CC(C)C)C(=O)N[C@@H](CCCCN)C(=O)N[C@@H](Cc1ccc(O)cc1)C(=O)N[C@@H](CC(C)C)C(N)=O [BP100, H-Lys-Lys-Leu-Phe-Lys-Lys-Ile-Leu-Lys-Tyr-Leu-NH2] | – | 24% | –
CCCC(=O)NCCCC[C@H](NC(=O)[C@@H](NC(=O)[C@H](CCCCN)NC(=O)[C@H](CCCCN)NC(=O)[C@H](Cc1ccccc1)NC(=O)[C@H](CC(C)C)NC(=O)[C@H](CCCCN)NC(=O)[C@H](CCCCN)NC(C)=O)[C@@H](C)CC)C(=O)N[C@@H](CCCCN)C(=O)N[C@@H](Cc1ccc(O)cc1)C(=O)N[C@@H](CC(C)C)C(N)=O [BP387, Ac-KKLFKKIK(COC3H7)KYL-NH2] | – | 15% | 9.2 ± 0.96 mm
CCCCCC(=O)NCCCC[C@H](NC(=O)[C@H](Cc1ccc(O)cc1)NC(=O)[C@H](CCCCN)NC(=O)[C@H](CC(C)C)NC(=O)[C@@H](NC(=O)[C@H](CCCCN)NC(=O)[C@H](CCCCN)NC(=O)[C@H](Cc1ccccc1)NC(=O)[C@H](CC(C)C)NC(=O)[C@H](CCCCN)NC(=O)[C@H](CCCCN)NC(C)=O)[C@@H](C)CC)C(N)=O [BP378, Ac-KKLFKKILKYK(COC5H11)-NH2] | not a typical necrosis | 45% | 13.2 ± 4.7 mm
CCCC(=O)NCCCC[C@H](NC(=O)[C@H](CCCCN)NC(=O)[C@H](CC(C)C)NC(=O)[C@@H](NC(=O)[C@H](CCCCN)NC(=O)[C@H](CCCCN)NC(=O)[C@H](Cc1ccccc1)NC(=O)[C@H](CC(C)C)NC(=O)[C@H](CCCCN)NC(=O)[C@H](CCCCN)NC(C)=O)[C@@H](C)CC)C(=O)N[C@@H](CC(C)C)C(N)=O [BP389, Ac-KKLFKKILKK(COC3H7)L-NH2] | – | 29% | 9.0 ± 2.9 mm
